# Reference: article PMC8881610 (Nature Communications, 2022)
# Where a chain is given by its changes, count along the chain named.
# How the values were obtained:
# Test in all cases: cAMP accumulation assay (LANCE Ultra cAMP kit), GIPR WT, mutant or modified constructs
# Format in all cases: cell-based
# Parameters in all cases: acylated tirzepatide to the full-length or modified; Flag; expressed in transfected cells; host or cells: HEK293T
# GIPR [1] = target: T1, GIPR (Homo sapiens, UniProt P48546, W90A); settings: HEK-293T, GIPR W90A; HEK293T
# T1 sequence (P48546 22-466 W90A): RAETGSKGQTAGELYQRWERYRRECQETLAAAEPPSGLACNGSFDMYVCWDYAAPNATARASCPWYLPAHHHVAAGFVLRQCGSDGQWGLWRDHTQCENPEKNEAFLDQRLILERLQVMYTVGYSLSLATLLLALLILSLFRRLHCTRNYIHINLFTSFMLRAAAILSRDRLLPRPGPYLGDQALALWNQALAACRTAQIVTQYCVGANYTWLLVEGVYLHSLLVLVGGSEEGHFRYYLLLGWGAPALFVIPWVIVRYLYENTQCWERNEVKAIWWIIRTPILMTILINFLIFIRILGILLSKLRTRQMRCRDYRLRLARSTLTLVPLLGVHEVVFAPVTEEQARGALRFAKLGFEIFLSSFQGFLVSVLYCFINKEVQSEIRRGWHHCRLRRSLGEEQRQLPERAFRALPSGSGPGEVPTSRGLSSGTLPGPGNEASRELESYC
# How it was run: (§1)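 HEK293T cells transiently transfected with human GIPR WT or mutant constructs (pcDNA3.1), used after 24 h. The cells were stimulated with peptide agonists for 40 min at RT in HBSS with 5 mM HEPES, 0.1% BSA or casein, and 0.5 mM IBMX. cAMP was read by LANCE Ultra TR-FRET (Eu-cAMP tracer/ULight anti-cAMP, 1 h RT, 620/650 nm).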
# GIPR [2] = target: T2, GIPR (Homo sapiens, UniProt P48546, R370A); settings: HEK-293T, GIPR R370A; HEK293T
# T2 sequence (P48546 22-466 R370A): T1 sequence (P48546 22-466 W90A) with A69W, R349A
# How it was run: as §1
# GIPR [3] = target: T3, GIPR (Homo sapiens, UniProt P48546, D191A); settings: HEK-293T, GIPR D191A; HEK293T
# T3 sequence (P48546 22-466 D191A): T1 sequence (P48546 22-466 W90A) with A69W, D170A
# How it was run: as §1
compound,measurement,setting,value
CCCCCCCCCCCCCCCC(=O)N[C@@H](CCC(=O)NCCCC[C@H](NC(=O)[C@H](CC(=O)O)NC(=O)[C@H](CO)NC(=O)[C@@H](NC(=O)[C@H](Cc1ccccc1)NC(=O)[C@@H](NC(=O)CNC(=O)[C@H](CCC(N)=O)NC(=O)C(C)(C)NC(=O)[C@@H](N)Cc1c[nH]cn1)[C@@H](C)O)[C@@H](C)O)C(=O)N[C@@H](CO)C(=O)N[C@@H](CCCCN)C(=O)N[C@@H](Cc1ccc(O)cc1)C(=O)N[C@@H](CC(C)C)C(=O)N[C@@H](CC(=O)O)C(=O)N[C@@H](CCC(=O)O)C(=O)N[C@@H](CCCNC(=N)N)C(=O)N[C@@H](C)C(=O)N[C@@H](C)C(=O)N[C@@H](CCC(N)=O)C(=O)N[C@@H](CC(=O)O)C(=O)N[C@@H](Cc1ccccc1)C(=O)N[C@H](C(=O)N[C@@H](CCC(N)=O)C(=O)N[C@@H](Cc1c[nH]c2ccccc12)C(=O)N[C@@H](CC(C)C)C(=O)N[C@@H](CC(C)C)C(=O)N[C@@H](CC(=O)O)C(=O)NCC(=O)NCC(=O)N1CCC[C@H]1C(=O)N[C@@H](CO)C(=O)N[C@@H](CO)C(=O)NCC(=O)N[C@@H](C)C(=O)N1CCC[C@H]1C(=O)N1CCC[C@H]1C(=O)N1CCC[C@H]1C(=O)N[C@@H](CO)C(N)=O)C(C)C)C(=O)O [Peptide 20],Emax,GIPR [1],98 ± 4.59%
same,Emax,GIPR [2],71.5 ± 2.85%
same,Emax,GIPR [3],51.7 ± 5.96%
